From US20060247156A1, “Use of neuropeptides for ligament, cartilage, and bone healing” (priority 2004, published 2006)

Tested on: cartilage and subchondral bone defect in the trochlear groove
Test: Full-thickness cartilage defect healing with substance P delivery, histological grading
Type: in vivo, rat
Text: Purpose-bred male Wistar rats, were used in this Example. Rats were acclimated to the animal care facility for seven days before use. All rats then undergo general anesthesia for surgical induction of cartilage injury. All rats underwent bilateral surgery. At the time of surgery, miniosmotic pumps were placed for NP treatment. All pumps remained in place throughout the experiment. At various time intervals after the surgery (2, 4 and 6 weeks), the rats were euthanized each joint was harvested for histological analysis.
Cartilage Injury: A […] long incision was made over the patellar tendon and the tendon and surrounding tissue was exposed. A mini-arthrotomy was made and the patella was subluxed (dislocated) to expose the femoral condyles and trochlear groove. A drill was used to create a full thickness (3 mm deep) hole, 0.635 mm in diameter, in the trochlear groove. The patella was then repositioned and the muscle fascia and subcutaneous tissue was closed with a continuous suture pattern, and the skin apposed with skin staples.
Neuropeptide delivery: Substance P (75 pg/100 μl) was infused subcutaneously (0.25 μl/hr) via the implantation of mini-osmotic pumps (Alza Corp. Palo Alto, Calif.). In all rats, neuropeptide infused pumps were implanted in a subcutaneous pocket after induction of general anesthesia. […]

Substance: Substance P [SP]
- average cartilage repair score (0 no damage to 24) (Substance P 75 pg/100 μl, 0.25 μl/hr via mini-osmotic pump, initial two week period, Sellers grading): 11.9
- healing of cartilage and subchondral bone (in words) (full-thickness cartilage defects after two weeks of healing): greatly improved healing of both the cartilage and subchondral bone
